# Assay results reported in patent US7045495B2 (Sloan-Kettering Institute for Cancer Research, priority 1996, dated 2006).
# Like-named read-outs stand apart in the source and are kept apart here.
# Tests used:
# [1] = test system: MKN-74 cells; test: apoptosis by QFM, Hoechst-33258 staining; format: cell-based, human; conditions: for induction of apoptosis (condensed chromatin, 400 cells): MKN-74, UCN-01 7.5 to 10 μM; for Percent Apoptosis: 24 h continuous (single drug) or concomitant, flavopiridol 300 nM, paclitaxel 50 μM, carboplatin
# Protocol: (§1) Apoptosis was measured by two different methods: (i) Quantitative fluorescent microscopy (QFM) of nuclear changes induced by apoptosis, as determined by bisbenzimide trihydrochloride (Hoescht-33258) staining of nuclear chromatin (15), and (ii) a terminal deoxynucleotidyl transferase (TdT) assay that labels the 3′-OH ends of DNA fragments produced in apoptotic cells (16). […] MMC was diluted in water. A stock safingol solution was constituted in DMSO and was subsequently diluted at least 1:100 in media for all experiments. […] For QFM determinations, the cells were fixed in 3% paraformaldehyde and incubated at room temperature for 10 minutes. The fixative was removed and the cells were washed with 1×PBS, resuspended in 20 μl 1×PBS containing only 8 μg/ml of bisbenzimide trihydrochloride (Hoechst #33258), and incubated at room temperature for 15 minutes. Aliquots of the cells (10 μl) were placed on glass slides coated with 3-amino-propyl-triethoxysilane, and duplicate samples of 500 cells each were counted and scored for the incidence of apoptotic chromatin condensation using an Olympus BH-2 fluorescence microscope equipped with a BH2-DM2U2UV Dich. Mirror Cube filter (Olympus, Lake Success, N.Y.). For the TdT assays, the ApopTag Kit (Oncor, Gaithersburg, Md.) was used. This method employs a fluoresceinated antidigoxigenin antibody directed against nucleotides of digoxigenin-11-dUTP (d-dUTP) which are catalytically added to the 3-ends fragmented DNA by TdT. Briefly, 1–2×10^6 cells were washed and fixed with 1% paraformaldehyde. The fixed cells were incubated in a reaction mixture containing TdT and d-dUTP for 30 minutes at 37° C. Stop/wash buffer was added, and the cells were resuspended in 100 μl of fluorescinated anti-digoxigenin antibody for 30 minutes at room temperature. The cells were then washed with 0.1% Triton X-100 and counterstained with propidium iodide (PI) solution. Green (d-dUTP labeled DNA strand breaks) and red (PI staining for total DNA content) fluorescence of individual cells were measured on a FACScan flow cytometer (Becton Dickinson, San Jose, Calif.). The resulting bivariate plots enabled the detection of apoptotic events within the cell cycle. The R1 cursor was set using the control specimen to define normal levels of green fluorescence (i.e., basal levels of apoptosis). Cells with fluorescence above the R, cursor were considered apoptotic. The data from 10,000 cells were collected and analyzed using CellFit and LYSYS software (Becton Dickinson).
# Apoptosis was again measured by QFM staining.
# (§2) Induction of apoptosis was estimated by counting the frequency of condensed nuclear chromatin with Hoechst-33258 stain in duplicate samples of 400 cells.
# For these studies apoptosis was measured by quantitative fluorescent microscopy (QFM) determination with bisbenzimide trihydrochloride stain (Hoescht-33258) for condensed nuclear chromatin characteristic of apoptotic cells.
# For QFM determinations 500 cells were counted and scored for the incidence of apoptotic chromatin changes under an Olympus BH-2 fluorescence microscope in duplicate samples, ±SD, using a BH2-DM2U2UV Dich. Mirror Cube filter.
# To study this further applicants elected to examine five bis-indolylmaleimides with various potencies against PKC. […] The induction of apoptosis was estimated by counting the frequency of condensed nuclear chromatin with Hoechst-33258 stain in duplicate samples of 400 cells.
# [2] = test system: PKC; conditions: cited from earlier work
# [3] = test system: MDA-MB-468 breast cancer cells; test: apoptosis by QFM, Hoechst-33258 staining; format: cell-based, human; conditions: 24 hours
# Protocol: PRELIMINARY STUDIES. […] Apoptosis was measured by quantitative fluorescent microscopy (QFM) of nuclear changes induced by apoptosis, as determined by bisbenzimide trihydrochloride (Hoescht-33258) staining of condensed nuclear chromatin (24). For the QFM duplicate samples of 500 cells each were counted and scored for the incidence of apoptotic chromatin condensation using an Olympus BH-2 fluorescence microscope.
# Applicants also tested the PKC inhibitor UCN-01 (27) which is currently in phase I clinical trial at the NCI. In contrast to safingol, which inhibits PKC by binding to its regulatory domain, UCN-01 inhibits PKC at its catalytic domain. Therefore, assessment of the effect of UCN-01 on inducing apoptosis in combination with MMC on MDA-MB-468 was also performed. The QFM method to quantitate apoptosis was again used. The conditions tested were identical to those described above for safingol except UCN-01 (1 μM) was substituted for safingol in all the conditions.
# as §2
# [4] = test system: SK-GT-2 cells; test: apoptosis by QFM, Hoechst-33258 staining; format: cell-based, human; conditions: 24 hours; for percentage of cells undergoing apoptosis (QFM): MMC 5.0 μg/ml
# Protocol: (i) Safingol enhances MMC-induced apoptosis: SK-GT-5 cells, which have a mutated p53 gene (9), were treated with safingol in the presence or absence of MMC for 24 hours. For determination of apoptosis SK-GT-5 cells were treated according to one of several conditions: (i) no drug (control) for 24 hours, (ii) Safingol alone (50 μM) for 24 hours. (This concentration represents the highest non-toxic dose of safingol for the SK-GT-5 cells, as determined by cell proliferation studies, and slightly exceeds the safingol concentration (30 μM) which inhibits PKC enzyme activity by 50% in vitro.), (iii) Mitomycin-C alone (2.5 μg/ml) for 24 hours, (iv) Mitomycin-C alone (5 μg/ml) for 24 hours, (v) the combination of safingol (50 μM) and Mitomycin-C (2.5 μg/ml) for 24 hours, (vi) the combination of safingol (50 μM) and Mitomycin-C (5 μg/ml) for 24 hours. Apoptosis was measured by quantitative fluorescent microscopy (QFM) of nuclear changes induced by apoptosis, as determined by bisbenzimide trihydrochloride (Hoescht-33258) staining of condensed nuclear chromatin (3,5). For the QFM duplicate samples of 500 cells each were counted and scored for the incidence of apoptotic chromatin condensation using an Olympus BH-2 fluorescence microscope.
# (ii) UCN-01 enhances MMC-induced apoptosis: SK-GT-2 cells, which have a mutation in p53, were treated with increasing concentrations of UCN-01 in the presence or absence of a fixed dose of MMC for 24 hours.
# Both UCN-01 and Flavo inhibit PKC. These drugs are cytotoxic to tumor cells and have been reported to induce apoptosis. […] In order to test this hypothesis we elected to treat gastric cancer cells, MKN-74 and SK-GT-2, as well as breast cancer cells, MDA-MB-468, with UCN-01 (7.5 to 10 μM) or Flavo (300 nM) in the presence or absence of MMC (5 μg/ml) or Taxol (50 μM) for 24 hours. Induction of apoptosis was estimated by counting the frequency of condensed nuclear chromatin with Hoechst-33258 stain in duplicate samples of 400 cells.
# [5] = test system: MKN-74; test: cell viability, trypan blue dye exclusion; format: cell-based, human; conditions: 24 hours, single drug or concomitant; bryostatin 1 μM, Mitomycin-C 1 μg/ml, Taxol 50 μM, Cisplatin 50 μM
# Description: Recently our laboratory has studied the effects of combining bryostatin with chemotherapy both in vitro and in vivo against solid tumors. For our in vitro studies, we have been using the human gastric cancer cell line MKN-74. Cytotoxicity has been examined both by cell viability assays using trypan blue dye exclusion assays and by the induction of apoptosis using quantitative fluorescent microscopy.
# [6] = test system: metastatic breast cancer; conditions: cited from earlier work
# [7] = test system: esophageal carcinoma; conditions: cited from earlier work
# [8] = test system: mammary carcinomas; test: tumor size in mice bearing mammary carcinomas; format: in vivo; conditions: for increase in tumor size by day #6: bryostatin 60 μg/kg followed in 12 hours by Mitomycin-C 3 μg/kg or Taxol 50 μg/kg, preliminary
# [9] = test system: SK-GT-5 cells; test: apoptosis by quantitative fluorescent microscopy (QFM), Hoechst-33258 staining; format: cell-based, human; conditions: FIG. 4: safingol 50 μM and/or PMA 1 ng/ml for 1 hour, then MMC 5 μg/ml or no drug 24 hours; MMC alone 24 hours
# Protocol: as §1
# For the QFM duplicate samples of 500 cells each were counted and scored for the incidence of apoptotic chromatin condensation using an Olympus BH-2 fluorescence microscope.
smiles,measurement,setting,value
CN(C)C[C@H]1CCn2c(c(C3=C(c4cn(C)c5ccccc45)C(=O)NC3=O)c3ccccc32)C1 [RO 32-0432],percentage of cells undergoing apoptosis (QFM),"[1]; 24 hours, RO 32-0432 1 μM, MMC",essentially no effect on inducing apoptosis
same,"percent induction of apoptosis, 6hrs","[1]; Ro 2 μM, MMC 1 μg/ml",0.3%
same,"percent induction of apoptosis, 12hrs","[1]; Ro 2 μM, MMC 1 μg/ml",1.5%
same,"percent induction of apoptosis, 24hrs","[1]; Ro 2 μM, MMC 1 μg/ml",1.2%
same,"percent induction of apoptosis, 48hrs","[1]; Ro 2 μM, MMC 1 μg/ml",5.0%
same,"percent induction of apoptosis, 72hrs","[1]; Ro 2 μM, MMC 1 μg/ml",13%
"CN[C@@H]1C[C@H]2O[C@@](C)([C@@H]1OC)n1c3ccccc3c3c4c(c5c6ccccc6n2c5c31)C(=O)N[C@H]4O [UCN-01, 7-OH-staurosporine]",induction of apoptosis (QFM),"[3]; FIG. 10, UCN-01 1 μM, MMC 5.0 μg/ml",20%±4
same,"induction of apoptosis (condensed chromatin, 400 cells)","[3]; MDA-MB-468, UCN-01 7.5 to 10 μM, MMC 5 μg/ml",20% ± 1
same,"induction of apoptosis (condensed chromatin, 400 cells)","[1]; 24 hours, Taxol 50 μM",10% ± 2
same,concentration range that inhibits PKC activity,[2],nanomolar concentrations
same,percentage of cells undergoing apoptosis (QFM),[4]; UCN-01 0.1 μM,1%±0%
same,percentage of cells undergoing apoptosis (QFM),[4]; UCN-01 1 μM,1%±0
same,percentage of cells undergoing apoptosis (QFM),[4]; UCN-01 10 μM,21%±1%
same,"induction of apoptosis (condensed chromatin, 400 cells)","[4]; UCN-01 7.5 to 10 μM, MMC 5 μg/ml",18% ± 4
"CC(=O)O[C@H]1C(=O)[C@@]2(C)[C@H]([C@H](OC(=O)c3ccccc3)[C@]3(O)C[C@H](OC(=O)[C@H](O)[C@@H](NC(=O)c4ccccc4)c4ccccc4)C(C)=C1C3(C)C)[C@]1(OC(C)=O)CO[C@@H]1C[C@@H]2O [paclitaxel, Tax-11-en-9-one, 5 beta, 20-epoxy-1, 2 alpha, 4, 7 beta, 10 beta, 13 alpha-hexahydroxy-1,4, 10-diacetate, 2 benzoate 13-(alpha-phenylhippurate)]",% of Cells Alive,[5],93%
same,response rate,"[6]; 96 hour infusion, taxane resistant population",286
same,response rates,"[6]; first chemotherapy, 24 hour infusion with or without G-CSF",56–62%
same,response rate,"[6]; first line, 250 mg/m^2 over 3 hour infusion",32%
same,Percent Apoptosis,[1]; MMC 1 μg/ml,5.5%±1
same,Percent Apoptosis,"[1]; MMC 1 μg/ml, listed as Paclitaxel",6% ± 1%
same,% APOPTOSIS,"[1]; 24 hours, FLAVO 300 nM, Taxol 50 μM, MMC 1 μg/ml, single drugs or in combination",9%
same,"percent induction of apoptosis, Concomitant","[1]; 24 hours, FLAVO 300 nM, Taxol 50 μM, MMC 1 μg/ml, single drugs or together",9% ± 1%
same,"induction of apoptosis (condensed chromatin, 400 cells)","[1]; 24 hours, Taxol 50 μM",2% ± 1
same,major responses,"[7]; 250 mg/m^2 by 24 hour infusion every 21 days with G-CSF, 51 patients",32%
same,complete response,"[7]; 250 mg/m^2 by 24 hour infusion, 51 patients",2%
same,median survival,[7]; in vivo,13 months
same,increase in tumor size by day #6,[8],22%
N.N.O=C([O-])C1(C(=O)[O-])CCC1.[Pt+2] [carboplatin],Percent Apoptosis,[1]; MMC 1 μg/ml,1%±1%
same,Percent Apoptosis,"[1]; MMC 1 μg/ml, listed as Carboplatin",1% ± 1%
CCC/C=C/C=C/C(=O)O[C@H]1/C(=C/C(=O)OC)C[C@H]2C[C@H]([C@@H](C)O)OC(=O)C[C@H](O)C[C@@H]3C[C@H](OC(C)=O)C(C)(C)[C@](O)(C[C@@H]4C/C(=C/C(=O)OC)C[C@H](/C=C/C(C)(C)[C@]1(O)O2)O4)O3 [bryostatin],% of Cells Alive,[5],85%
same,increase in tumor size by day #6,[8],80%
same,tumor energy and pH (NMR),[8]; first noted 12 to 24 hours after bryostatin,dose-dependent decrease in tumor energy and pH
"CCCCCCCCCCCCCC(=O)O[C@@H]1[C@@H](C)[C@@]2(O)[C@@H](C=C(CO)C[C@]3(O)C(=O)C(C)=C[C@@H]23)[C@@H]2C(C)(C)[C@]12OC(C)=O [PMA, 3-phorbol 12-myristate 13-acetate]",percentage of cells undergoing apoptosis (QFM),[9],essentially no effect on inducing apoptosis
